In PubChem BioAssay (NCI):
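The compound was tested at five concentrations on cells cultured in 96-well plates, with a 48-hour exposure period. At the GI50, growth is halved. TGI: concentration producing complete growth inhibition.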

What was measured:
Assay in all cases: NCI tumour cell line growth inhibition, 48 h
MOLT-4 leukemia = tested on: MOLT-4 leukemia
TK-10 renal = tested on: TK-10 renal
SF-295 CNS = tested on: SF-295 CNS
HL-60(TB) leukemia = tested on: HL-60(TB) leukemia
DU-145 prostate = tested on: DU-145 prostate
NCI-H522 lung = tested on: NCI-H522 lung
SK-OV-3 ovarian = tested on: SK-OV-3 ovarian
MDA-MB-435 = tested on: MDA-MB-435
HS 578T breast = tested on: HS 578T breast
A498 renal = tested on: A498 renal
CAKI-1 renal = tested on: CAKI-1 renal
UO-31 renal = tested on: UO-31 renal
OVCAR-3 ovarian = tested on: OVCAR-3 ovarian
SK-MEL-2 melanoma = tested on: SK-MEL-2 melanoma
PC-3 prostate = tested on: PC-3 prostate
SF-268 CNS = tested on: SF-268 CNS
UACC-62 melanoma = tested on: UACC-62 melanoma
RXF 393 renal = tested on: RXF 393 renal
COLO 205 colon = tested on: COLO 205 colon
SR leukemia = tested on: SR leukemia
CCRF-CEM leukemia = tested on: CCRF-CEM leukemia
UACC-257 melanoma = tested on: UACC-257 melanoma
OVCAR-4 ovarian = tested on: OVCAR-4 ovarian
OVCAR-8 ovarian = tested on: OVCAR-8 ovarian
HOP-92 NSCLC = tested on: HOP-92 NSCLC
SNB-75 CNS = tested on: SNB-75 CNS
OVCAR-5 ovarian = tested on: OVCAR-5 ovarian
SK-MEL-28 melanoma = tested on: SK-MEL-28 melanoma
K-562 leukemia = tested on: K-562 leukemia
ACHN renal = tested on: ACHN renal
BT-549 breast = tested on: BT-549 breast
A549 NSCLC = tested on: A549 NSCLC
NCI-H460 lung = tested on: NCI-H460 lung
HOP-62 NSCLC = tested on: HOP-62 NSCLC
U251 CNS = tested on: U251 CNS
SW-620 colon = tested on: SW-620 colon
MALME-3M melanoma = tested on: MALME-3M melanoma
HCT-15 colon = tested on: HCT-15 colon
SK-MEL-5 melanoma = tested on: SK-MEL-5 melanoma
M14 melanoma = tested on: M14 melanoma
SN12C renal = tested on: SN12C renal
NCI/ADR-RES ovarian = tested on: NCI/ADR-RES ovarian
SF-539 CNS = tested on: SF-539 CNS
NCI-H226 lung = tested on: NCI-H226 lung
HCC-2998 colon = tested on: HCC-2998 colon
IGROV1 ovarian = tested on: IGROV1 ovarian
786-0 renal = tested on: 786-0 renal
RPMI-8226 leukemia = tested on: RPMI-8226 leukemia
HT29 colon = tested on: HT29 colon
EKVX NSCLC = tested on: EKVX NSCLC
KM12 colon = tested on: KM12 colon
HCT-116 colon = tested on: HCT-116 colon
SNB-19 CNS = tested on: SNB-19 CNS
MCF7 breast = tested on: MCF7 breast
LOX IMVI melanoma = tested on: LOX IMVI melanoma

CC(C)=CCC[C@](C)(O)[C@H]1CC[C@]2(C)[C@@H]1CC[C@@H]1[C@@]3(C)CC[C@H](N)C(C)(C)[C@@H]3CC[C@]12C
GI50 (MOLT-4 leukemia): 2.1 µM | TGI (MOLT-4 leukemia): 4.98 µM | GI50 (TK-10 renal): 6.01 µM | TGI (TK-10 renal): 21.1 µM | GI50 (SF-295 CNS): 1.81 µM | TGI (SF-295 CNS): 3.39 µM | GI50 (HL-60(TB) leukemia): 1.87 µM | TGI (HL-60(TB) leukemia): 3.9 µM | GI50 (DU-145 prostate): 1.92 µM | TGI (DU-145 prostate): 3.63 µM | GI50 (NCI-H522 lung): 1.97 µM | TGI (NCI-H522 lung): 4.28 µM | GI50 (SK-OV-3 ovarian): 3.23 µM | TGI (SK-OV-3 ovarian): 10.9 µM | GI50 (MDA-MB-435): 1.87 µM | TGI (MDA-MB-435): 3.52 µM | GI50 (HS 578T breast): 2.21 µM | TGI (HS 578T breast): 5.01 µM | GI50 (A498 renal): 1.88 µM | TGI (A498 renal): 3.55 µM | GI50 (CAKI-1 renal): 1.85 µM | TGI (CAKI-1 renal): 3.38 µM | GI50 (UO-31 renal): 1.54 µM | TGI (UO-31 renal): 2.9 µM | GI50 (OVCAR-3 ovarian): 1.77 µM | TGI (OVCAR-3 ovarian): 3.27 µM | GI50 (SK-MEL-2 melanoma): 2.02 µM | TGI (SK-MEL-2 melanoma): 4.05 µM | GI50 (PC-3 prostate): 1.98 µM | TGI (PC-3 prostate): 4.23 µM | GI50 (SF-268 CNS): 4.19 µM | TGI (SF-268 CNS): 21.8 µM | GI50 (UACC-62 melanoma): 1.66 µM | TGI (UACC-62 melanoma): 3.21 µM | GI50 (RXF 393 renal): 1.49 µM | TGI (RXF 393 renal): 2.85 µM | GI50 (COLO 205 colon): 1.9 µM | TGI (COLO 205 colon): 3.68 µM | GI50 (SR leukemia): 1.17 µM | TGI (SR leukemia): 3.58 µM | GI50 (CCRF-CEM leukemia): 3.02 µM | TGI (CCRF-CEM leukemia): > 100 µM | GI50 (UACC-257 melanoma): 2.06 µM | TGI (UACC-257 melanoma): 4.47 µM | GI50 (OVCAR-4 ovarian): 2.19 µM | TGI (OVCAR-4 ovarian): 5.74 µM | GI50 (OVCAR-8 ovarian): 2.18 µM | TGI (OVCAR-8 ovarian): 4.96 µM | GI50 (HOP-92 NSCLC): 1.76 µM | TGI (HOP-92 NSCLC): 5.46 µM | GI50 (SNB-75 CNS): 10.5 µM | TGI (SNB-75 CNS): 26.4 µM | GI50 (OVCAR-5 ovarian): 1.64 µM | TGI (OVCAR-5 ovarian): 3.09 µM | GI50 (SK-MEL-28 melanoma): 1.8 µM | TGI (SK-MEL-28 melanoma): 3.35 µM | GI50 (K-562 leukemia): 1.97 µM | TGI (K-562 leukemia): 5.71 µM | GI50 (ACHN renal): 1.78 µM | TGI (ACHN renal): 3.16 µM | GI50 (BT-549 breast): 14.3 µM | TGI (BT-549 breast): 55.8 µM | GI50 (A549 NSCLC): 1.87 µM | TGI (A549 NSCLC): 3.77 µM

Cc1cccc(N2CCN(C3=C(Cl)C(=O)c4ncccc4C3=O)CC2)c1
GI50 (NCI-H460 lung): 5.49 µM | TGI (NCI-H460 lung): 21.3 µM | GI50 (MOLT-4 leukemia): 2.01 µM | TGI (MOLT-4 leukemia): 5.45 µM | GI50 (TK-10 renal): 3.96 µM | TGI (TK-10 renal): 8.89 µM | GI50 (HOP-62 NSCLC): 17 µM | TGI (HOP-62 NSCLC): 31 µM | GI50 (SF-295 CNS): 12.1 µM | TGI (SF-295 CNS): 25.5 µM | GI50 (U251 CNS): 6.96 µM | TGI (U251 CNS): 21.1 µM | GI50 (SW-620 colon): 1.42 µM | TGI (SW-620 colon): 3 µM | GI50 (HL-60(TB) leukemia): 1.27 µM | TGI (HL-60(TB) leukemia): 3.82 µM | GI50 (DU-145 prostate): 6.86 µM | TGI (DU-145 prostate): 26.3 µM | GI50 (NCI-H522 lung): 1.74 µM | TGI (NCI-H522 lung): 3.42 µM | GI50 (SK-OV-3 ovarian): 12.8 µM | TGI (SK-OV-3 ovarian): 42.9 µM | GI50 (MDA-MB-435): 1.81 µM | TGI (MDA-MB-435): 3.35 µM | GI50 (MALME-3M melanoma): 1.83 µM | TGI (MALME-3M melanoma): 3.77 µM | GI50 (HS 578T breast): 5.74 µM | TGI (HS 578T breast): 38.5 µM | GI50 (A498 renal): 13.1 µM | TGI (A498 renal): 26.5 µM | GI50 (HCT-15 colon): 1.71 µM | TGI (HCT-15 colon): 4.05 µM | GI50 (SK-MEL-5 melanoma): 9.63 µM | TGI (SK-MEL-5 melanoma): 21.5 µM | GI50 (CAKI-1 renal): 2.86 µM | TGI (CAKI-1 renal): 11.6 µM | GI50 (UO-31 renal): 1.48 µM | TGI (UO-31 renal): 2.81 µM | GI50 (M14 melanoma): 2.69 µM | TGI (M14 melanoma): 9.36 µM | GI50 (SN12C renal): 4.28 µM | TGI (SN12C renal): 21.9 µM | GI50 (SK-MEL-2 melanoma): 6.33 µM | TGI (SK-MEL-2 melanoma): 19.2 µM | GI50 (PC-3 prostate): 4.48 µM | TGI (PC-3 prostate): 17.5 µM | GI50 (SF-268 CNS): 14.4 µM | TGI (SF-268 CNS): 32.2 µM | GI50 (NCI/ADR-RES ovarian): 2.44 µM | TGI (NCI/ADR-RES ovarian): 7.45 µM | GI50 (UACC-62 melanoma): 3.49 µM | TGI (UACC-62 melanoma): 13 µM | GI50 (RXF 393 renal): 1.72 µM | TGI (RXF 393 renal): 3.15 µM | GI50 (SF-539 CNS): 3.91 µM | TGI (SF-539 CNS): 15.6 µM | GI50 (COLO 205 colon): 1.94 µM | TGI (COLO 205 colon): 3.79 µM | GI50 (NCI-H226 lung): 12.9 µM | TGI (NCI-H226 lung): 33.3 µM | GI50 (HCC-2998 colon): 8.53 µM | TGI (HCC-2998 colon): 22.1 µM | GI50 (CCRF-CEM leukemia): 2.03 µM | TGI (CCRF-CEM leukemia): 5.79 µM | GI50 (UACC-257 melanoma): 2.05 µM | TGI (UACC-257 melanoma): 4.97 µM | GI50 (IGROV1 ovarian): 2.53 µM | TGI (IGROV1 ovarian): 6.58 µM | GI50 (OVCAR-4 ovarian): 1.74 µM | TGI (OVCAR-4 ovarian): 3.26 µM | GI50 (786-0 renal): 2.33 µM | TGI (786-0 renal): 5.36 µM | GI50 (RPMI-8226 leukemia): 2.08 µM | TGI (RPMI-8226 leukemia): 5.47 µM | GI50 (HT29 colon): 6.09 µM | TGI (HT29 colon): 21 µM | GI50 (OVCAR-8 ovarian): 2.66 µM | TGI (OVCAR-8 ovarian): 9.3 µM | GI50 (EKVX NSCLC): 1.78 µM | TGI (EKVX NSCLC): 3.34 µM | GI50 (HOP-92 NSCLC): 1.48 µM | TGI (HOP-92 NSCLC): 2.86 µM | GI50 (SNB-75 CNS): 10.9 µM | TGI (SNB-75 CNS): 27.9 µM | GI50 (OVCAR-5 ovarian): 15 µM | TGI (OVCAR-5 ovarian): 31.5 µM | GI50 (KM12 colon): 19 µM | TGI (KM12 colon): 36.4 µM | GI50 (SK-MEL-28 melanoma): 2.6 µM | TGI (SK-MEL-28 melanoma): 6.61 µM | GI50 (K-562 leukemia): 1.8 µM | TGI (K-562 leukemia): 5.31 µM | GI50 (HCT-116 colon): 1.67 µM | TGI (HCT-116 colon): 3.07 µM | GI50 (ACHN renal): 1.72 µM | TGI (ACHN renal): 3.51 µM | GI50 (SNB-19 CNS): 14.4 µM | TGI (SNB-19 CNS): 29.5 µM | GI50 (MCF7 breast): 1.63 µM | TGI (MCF7 breast): 3.75 µM | GI50 (BT-549 breast): 3.61 µM | TGI (BT-549 breast): 9.58 µM | GI50 (A549 NSCLC): 15.7 µM | TGI (A549 NSCLC): 36 µM | GI50 (LOX IMVI melanoma): 1.57 µM | TGI (LOX IMVI melanoma): 3.02 µM
